Data: PubChem BioAssay AID2060626 (Molecular Pharmacology Branch, DTP, NCI, 2025)

System: 168753-222-R-J1-PDC complex spheroid viability
Test: Anticancer human tumor 168753-222-R-J1-PDC patient-derived bladder carcinoma cell line growth inhibition [CLK]
Settings: for IC50: curve of first compound; for viability, T/C: stronger effect = lower value
Text: A high-throughput screen of multi-cell type tumor spheroids was designed to identify active combinations of […] and targeted small molecules. Complex spheroids include a stromal component modeled by human endothelial cells (HUVEC) and fibroblasts modeled by human mesenchymal stem cells (MSCs). The concentration ranges selected for each drug and investigational agent were based upon clinically achievable concentrations if the clinical Cmax of the agent was known.
Compounds. The drugs and investigational agents: cirtuvivint (SM08502; NSC835563), CC-671 (NSC850746), vemurafenib (NSC761431), tapotoclax (NSC804041), sotorasib (NSC818433), adagrasib (NSC831453), MRTX-1133 (NSC836407), BAY2416964 (NSC825713), copanlisib (NSC816437), inavolisib (NSC800729), abemaciclib (NSC768073), osimertinib (NSC779217), entinostat (NSC756642), eltanexor (KPT-8602, NSC794443), venetoclax (NSC766270), ceralasertib (NSC777638), bortezomib (NSC756655), olaparib (NSC753686), talazoparib (NSC767125), alisertib (NSC759677), peposertib (NSC802822), gemcitabine (NSC613327), 5-fluorouracil (NSC19893), SN-38 (NSC673596), oxaliplatin (NSC266046), paclitaxel (NSC125973), and doxorubicin (NSC123127), were obtained from the National Cancer Institute (NCI) Developmental Therapeutics Program Chemical Repository. The FDA-approved anticancer drug set is available from the Developmental Therapeutics Program at https://dtp.cancer.gov/organization/dscb/obtaining/available plates.htm. […] The stock solutions were prepared in dimethyl sulfoxide (DMSO, Sigma-Aldrich, St. Louis, MO, cat. D2650), except for the platinum complexes which were prepared in saline (Quality Biological, Gaithersburg, MD, cat. 114-055-101), at 800-fold the tested concentration and stored at -70 degrees C prior to their use. All drugs and investigational agents were tested over a range starting from a high concentration at or near the clinical Cmax and decreasing in half-log increments. If the clinical Cmax for an agent had not been determined, the highest concentration tested was 10 microM.
Cell Culture. All cells were maintained in an incubator at 37 degrees C and 5% CO2 with 95% humidity. The PDC lines were cultured according to standard operating procedures established by the NCI PDMR. Briefly, all PDCs were thawed and cultured in Matrigel-coated flasks prepared with a working solution of 1X Ham's F-12 nutrient mix, without supplementation (Invitrogen, Waltham, MA, cat. 11765054), 100 U/mL penicillin-streptomycin (Invitrogen, cat. 15140122), and 2.5% Matrigel (Corning Inc., Corning, NY, cat. 354248) for the first three passages. The 947758-054-R-J2-PDC line was cultured in 6B/Colon 1A media, which includes advanced DMEM/F-12 (Thermo Fisher Scientific, cat. 12634028), 10 mM HEPES (Thermo Fisher Scientific, cat. 15630080), 1X GlutaMAX supplement (Thermo Fisher Scientific, cat. 35050061), 0.1 mg/mL primocin (InvivoGen, cat. ant-pm-2), 10% defined fetal bovine serum, heat inactivated (HyClone Laboratories Inc., cat. SH30070.03HI), 1.25 mM N-Acetyl-L-cysteine (Sigma-Aldrich, cat. A9165), 10 mM nicotinamide (Sigma-Aldrich, cat. N0636), 1X B-27 supplement (Thermo Fisher Scientific, cat. 17504044), 1X N-2 supplement (Thermo Fisher Scientific, cat. 17502048), and 10 microM Y-27632 dihydrochloride (Tocris Bioscience, cat. 1254). The 876862-298-R-J1-PDC was cultured in 6E media, which includes all 6B/Colon 1A media components plus 50% L-WRN conditioned media (ATCC, cat. CRL-3276), 50 ng/mL recombinant human EGF recombinant protein (hEGF; Thermo Fisher Scientific, cat. PHG0311), 10 ng/mL recombinant human fibroblast growth factor 10 (hGFG-10; PeproTech, cat. 100-26), 1 ng/mL recombinant human fibroblast growth factor 2 (hFGF-2; PeproTech, cat. 100-18B), and 1 µM prostaglandin E2 (PGE2; Tocris, cat. 2296). The 227483-062-R1-J1-PDC line was cultured in Panc media, containing all 6E components except hFGF-2, with the addition of 500 nM SB-431542 (Selleckchem, cat. S1067) and 10 nM gastrin (Tocris, cat. 3006). […]

[1] = second compound 0.0316 µM, first compound 0.0316 µM
[2] = second compound 0.0316 µM, first compound 0.1 µM
[3] = second compound 0.0316 µM, first compound 0.316 µM
[4] = second compound 0.0316 µM, first compound 1 µM
[5] = second compound 0.0316 µM, first compound 3.16 µM
[6] = second compound 0.0316 µM, first compound 10 µM
[7] = second compound 0.1 µM, first compound 0.0316 µM
[8] = second compound 0.1 µM, first compound 0.1 µM
[9] = second compound 0.1 µM, first compound 0.316 µM
[10] = second compound 0.1 µM, first compound 1 µM
[11] = second compound 0.1 µM, first compound 3.16 µM
[12] = second compound 0.1 µM, first compound 10 µM
[13] = second compound 0.316 µM, first compound 0.0316 µM
[14] = second compound 0.316 µM, first compound 0.1 µM
[15] = second compound 0.316 µM, first compound 0.316 µM
[16] = second compound 0.316 µM, first compound 1 µM
[17] = second compound 0.316 µM, first compound 3.16 µM
[18] = second compound 0.316 µM, first compound 10 µM
[19] = second compound 1 µM, first compound 0.0316 µM
[20] = second compound 1 µM, first compound 0.1 µM
[21] = second compound 1 µM, first compound 0.316 µM
[22] = second compound 1 µM, first compound 1 µM
[23] = second compound 1 µM, first compound 3.16 µM
[24] = second compound 1 µM, first compound 10 µM
[25] = second compound 3.16 µM, first compound 0.0316 µM
[26] = second compound 3.16 µM, first compound 0.1 µM
[27] = second compound 3.16 µM, first compound 0.316 µM
[28] = second compound 3.16 µM, first compound 1 µM
[29] = second compound 3.16 µM, first compound 3.16 µM
[30] = second compound 3.16 µM, first compound 10 µM
[31] = second compound 10 µM, first compound 0.0316 µM
[32] = second compound 10 µM, first compound 0.1 µM
[33] = second compound 10 µM, first compound 0.316 µM
[34] = second compound 10 µM, first compound 1 µM
[35] = second compound 10 µM, first compound 3.16 µM
[36] = second compound 10 µM, first compound 10 µM
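Further: viability measured after seven days of drug exposure.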
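Wherever viability, T/C is given: luminescence signal used as surrogate for viable cell amount; 100% = DMSO vehicle control wells.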

With `COc1ccc([C@@H](O)c2cc(-c3ncnc4cc(N5CCOCC5)ccc34)c(F)cc2Cl)nn1` + CNC(=O)c1ccc(Nc2nc(OC3CCCC3)c3c(-c4ccc5nc(C)oc5c4)c[nH]c3n2)c(OC)c1 as the molecule, how does the IC50 (second compound 0.0316 µM) read?
The IC50 was 1620 nM.

And the IC50 (second compound 0.1 µM)?
Its IC50 is 1690 nM.

What about the IC50 (second compound 0.316 µM) of the same molecule?
The IC50 was 565 nM.

What about the IC50 (second compound 1 µM) of the same molecule?
Its IC50 is less than 31.6 nM.

And the IC50 (second compound 3.16 µM)?
The IC50 was less than 31.6 nM.

What about the IC50 (second compound 10 µM) of the same molecule?
Its IC50 is less than 31.6 nM.

And the viability, T/C [1]?
Its viability, T/C is 107%.

What about the viability, T/C [2] of the same molecule?
The viability, T/C was 94%.

And the viability, T/C [3]?
The viability, T/C was 88.3%.

And the viability, T/C [4]?
The viability, T/C was 67.8%.

And the viability, T/C [5]?
The viability, T/C was 27%.

What about the viability, T/C [6] of the same molecule?
The viability, T/C was 15.9%.

What about the viability, T/C [7] of the same molecule?
Its viability, T/C is 91.1%.

And the viability, T/C [8]?
The viability, T/C was 94.5%.

And the viability, T/C [9]?
The viability, T/C was 82.7%.

What about the viability, T/C [10] of the same molecule?
The viability, T/C was 69.4%.

What about the viability, T/C [11] of the same molecule?
Its viability, T/C is 27.9%.

And the viability, T/C [12]?
The viability, T/C was 16.8%.

What about the viability, T/C [13] of the same molecule?
Its viability, T/C is 75.6%.

What about the viability, T/C [14] of the same molecule?
The viability, T/C was 78.9%.

And the viability, T/C [15]?
Its viability, T/C is 67.3%.

And the viability, T/C [16]?
Its viability, T/C is 32.5%.

What about the viability, T/C [17] of the same molecule?
The viability, T/C was 20.7%.

And the viability, T/C [18]?
The viability, T/C was 13.9%.

What about the viability, T/C [19] of the same molecule?
The viability, T/C was 41.9%.

What about the viability, T/C [20] of the same molecule?
Its viability, T/C is 27.2%.

What about the viability, T/C [21] of the same molecule?
Its viability, T/C is 26.3%.

What about the viability, T/C [22] of the same molecule?
The viability, T/C was 18.4%.

What about the viability, T/C [23] of the same molecule?
Its viability, T/C is 16.5%.

And the viability, T/C [24]?
The viability, T/C was 13.5%.

And the viability, T/C [25]?
Its viability, T/C is 25.3%.

What about the viability, T/C [26] of the same molecule?
The viability, T/C was 23.7%.

What about the viability, T/C [27] of the same molecule?
The viability, T/C was 21.1%.

And the viability, T/C [28]?
Its viability, T/C is 16.6%.

What about the viability, T/C [29] of the same molecule?
The viability, T/C was 17.8%.

And the viability, T/C [30]?
The viability, T/C was 15.8%.

And the viability, T/C [31]?
Its viability, T/C is 18.5%.

What about the viability, T/C [32] of the same molecule?
Its viability, T/C is 21.5%.

What about the viability, T/C [33] of the same molecule?
The viability, T/C was 20.8%.

What about the viability, T/C [34] of the same molecule?
Its viability, T/C is 15.9%.

And the viability, T/C [35]?
The viability, T/C was 15.4%.

What about the viability, T/C [36] of the same molecule?
Its viability, T/C is 11.3%.

With `Nc1ccn(C2OC(CO)C(O)C2(F)F)c(=O)n1` (centres undefined) + CN1CCN(c2cc(C(=O)Nc3cc4cc(-c5cnn(C)c5)ccc4cn3)ccn2)CC1 as the molecule, how does the IC50 (second compound 0.0316 µM) read?
The IC50 was 51.8 nM.

And the IC50 (second compound 0.1 µM)?
The IC50 was 46 nM.

What about the IC50 (second compound 0.316 µM) of the same molecule?
The IC50 was less than 31.6 nM.

What about the IC50 (second compound 1 µM) of the same molecule?
The IC50 was less than 31.6 nM.

And the IC50 (second compound 3.16 µM)?
Its IC50 is less than 31.6 nM.

What about the IC50 (second compound 10 µM) of the same molecule?
Its IC50 is less than 31.6 nM.

And the viability, T/C [1]?
Its viability, T/C is 65.4%.

What about the viability, T/C [2] of the same molecule?
The viability, T/C was 28.6%.

And the viability, T/C [3]?
Its viability, T/C is 21.3%.

And the viability, T/C [4]?
Its viability, T/C is 19%.

And the viability, T/C [5]?
Its viability, T/C is 15.6%.

And the viability, T/C [6]?
Its viability, T/C is 16%.

And the viability, T/C [7]?
Its viability, T/C is 63.6%.

And the viability, T/C [8]?
The viability, T/C was 21.3%.

And the viability, T/C [9]?
Its viability, T/C is 15.4%.

What about the viability, T/C [10] of the same molecule?
The viability, T/C was 11.6%.

And the viability, T/C [11]?
The viability, T/C was 10.2%.

And the viability, T/C [12]?
The viability, T/C was 11.8%.

And the viability, T/C [13]?
The viability, T/C was 9.99%.

What about the viability, T/C [14] of the same molecule?
The viability, T/C was 10.4%.

And the viability, T/C [15]?
The viability, T/C was 9.64%.

What about the viability, T/C [16] of the same molecule?
Its viability, T/C is 9.63%.

And the viability, T/C [17]?
The viability, T/C was 10.7%.

What about the viability, T/C [18] of the same molecule?
The viability, T/C was 12%.

What about the viability, T/C [19] of the same molecule?
The viability, T/C was 0.28%.

What about the viability, T/C [20] of the same molecule?
The viability, T/C was 0.18%.

What about the viability, T/C [21] of the same molecule?
Its viability, T/C is 0.16%.

What about the viability, T/C [22] of the same molecule?
Its viability, T/C is 0.12%.

What about the viability, T/C [23] of the same molecule?
Its viability, T/C is 0.57%.

And the viability, T/C [24]?
Its viability, T/C is 0.21%.

What about the viability, T/C [25] of the same molecule?
Its viability, T/C is 0.1%.

What about the viability, T/C [26] of the same molecule?
The viability, T/C was 0.12%.

And the viability, T/C [27]?
The viability, T/C was 0.43%.

What about the viability, T/C [28] of the same molecule?
Its viability, T/C is 0.07%.

What about the viability, T/C [29] of the same molecule?
Its viability, T/C is 0.15%.

And the viability, T/C [30]?
Its viability, T/C is 0.1%.

And the viability, T/C [31]?
The viability, T/C was 0.14%.

And the viability, T/C [32]?
Its viability, T/C is 0.14%.

What about the viability, T/C [33] of the same molecule?
Its viability, T/C is 1.05%.

What about the viability, T/C [34] of the same molecule?
Its viability, T/C is 1.61%.

What about the viability, T/C [35] of the same molecule?
Its viability, T/C is 0.42%.

What about the viability, T/C [36] of the same molecule?
Its viability, T/C is 0.9%.
